2 compounds from the NIST ThermoML archive (doi:10.1016/j.fluid.2014.06.023) can be followed below.

Data set [1] is described as follows: refractive index (Na D-line) (dimensionless). To be noted: 293.15 K; 101.33 kPa; Crystal; Standard Abbe refractometry.
The conditions of data set [2]: 293.15 K, 101.33 kPa, Pycnometric method.

Numbers after ± are expanded uncertainties.

As a reminder, the refractive index is a measure of how strongly the sample bends light. For orientation: mass density means the mass of a sample divided by its volume. With `Cl.N` [ammonium chloride (NH4Cl)], the refractive index in data set [1] turned out to be 1.638 ± 0.0008. In data set [2] (Crystal), the mass density turned out to be 1527 ± 12 kg/m3. With `CCCCO` [butan-1-ol], the mass density in data set [2] (Liquid) is on record as 810 ± 12 kg/m3.
